# Results published in ChEMBL document CHEMBL1201862, “PubChem BioAssay data set” (2004).
# Calls of active or inactive are those of the source.
# Assays:
# cells = format: functional
# [1] = cytotoxicity in HEK-293T cells, dose response, cytotoxicity control for BCR NF-kB inhibitor project, luminescence, B-cell screen hits (AID 489021); format: functional, cell-based;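 note: HEK-293T cells carrying an NF-kB luciferase reporter; cells exposed to compound for about 14 hours before viability readout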
# [2] = target: Induced myeloid leukemia cell differentiation protein Mcl-1 (Homo sapiens, UniProt Q07820); format: functional
# Sequence of Induced myeloid leukemia cell differentiation protein Mcl-1 (Q07820 whole entry, the tested form may be a part): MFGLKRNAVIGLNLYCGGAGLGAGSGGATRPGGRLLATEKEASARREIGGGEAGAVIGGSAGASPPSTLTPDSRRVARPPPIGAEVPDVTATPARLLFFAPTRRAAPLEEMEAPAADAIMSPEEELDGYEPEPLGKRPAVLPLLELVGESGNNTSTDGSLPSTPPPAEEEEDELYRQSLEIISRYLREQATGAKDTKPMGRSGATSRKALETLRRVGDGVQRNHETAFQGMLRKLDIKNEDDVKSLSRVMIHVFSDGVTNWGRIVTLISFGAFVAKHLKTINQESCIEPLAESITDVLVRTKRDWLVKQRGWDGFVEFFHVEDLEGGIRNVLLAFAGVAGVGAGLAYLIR
# [3] = target: T1, Carboxy-terminal domain RNA polymerase II polypeptide A small phosphatase 1 (Homo sapiens, UniProt Q9GZU7); test: inhibitors of CTDSP1, concentration-response testing, biochemical assay, absorbance-based, actives from ultra-high-throughput screening (AID 540297); format: functional
# T1 sequence (Q9GZU7 whole entry): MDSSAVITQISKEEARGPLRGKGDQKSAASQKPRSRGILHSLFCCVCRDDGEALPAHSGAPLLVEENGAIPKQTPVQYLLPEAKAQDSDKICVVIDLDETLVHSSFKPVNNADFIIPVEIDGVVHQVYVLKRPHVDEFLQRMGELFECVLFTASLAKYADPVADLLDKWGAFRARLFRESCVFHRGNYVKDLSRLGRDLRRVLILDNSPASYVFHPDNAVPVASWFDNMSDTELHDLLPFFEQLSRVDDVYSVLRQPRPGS
# Aminopeptidase N = target: T2, Aminopeptidase N (Plasmodium falciparum FcB1/Columbia, UniProt O96935); test: P. falciparum M1AAP inhibitors, biochemical, fluorogenic H-Leu-NHMec substrate, 1536-well (AID 1445); parameters: species or system Plasmodium falciparum 3D7, 3D7
# T2 sequence (O96935 whole entry): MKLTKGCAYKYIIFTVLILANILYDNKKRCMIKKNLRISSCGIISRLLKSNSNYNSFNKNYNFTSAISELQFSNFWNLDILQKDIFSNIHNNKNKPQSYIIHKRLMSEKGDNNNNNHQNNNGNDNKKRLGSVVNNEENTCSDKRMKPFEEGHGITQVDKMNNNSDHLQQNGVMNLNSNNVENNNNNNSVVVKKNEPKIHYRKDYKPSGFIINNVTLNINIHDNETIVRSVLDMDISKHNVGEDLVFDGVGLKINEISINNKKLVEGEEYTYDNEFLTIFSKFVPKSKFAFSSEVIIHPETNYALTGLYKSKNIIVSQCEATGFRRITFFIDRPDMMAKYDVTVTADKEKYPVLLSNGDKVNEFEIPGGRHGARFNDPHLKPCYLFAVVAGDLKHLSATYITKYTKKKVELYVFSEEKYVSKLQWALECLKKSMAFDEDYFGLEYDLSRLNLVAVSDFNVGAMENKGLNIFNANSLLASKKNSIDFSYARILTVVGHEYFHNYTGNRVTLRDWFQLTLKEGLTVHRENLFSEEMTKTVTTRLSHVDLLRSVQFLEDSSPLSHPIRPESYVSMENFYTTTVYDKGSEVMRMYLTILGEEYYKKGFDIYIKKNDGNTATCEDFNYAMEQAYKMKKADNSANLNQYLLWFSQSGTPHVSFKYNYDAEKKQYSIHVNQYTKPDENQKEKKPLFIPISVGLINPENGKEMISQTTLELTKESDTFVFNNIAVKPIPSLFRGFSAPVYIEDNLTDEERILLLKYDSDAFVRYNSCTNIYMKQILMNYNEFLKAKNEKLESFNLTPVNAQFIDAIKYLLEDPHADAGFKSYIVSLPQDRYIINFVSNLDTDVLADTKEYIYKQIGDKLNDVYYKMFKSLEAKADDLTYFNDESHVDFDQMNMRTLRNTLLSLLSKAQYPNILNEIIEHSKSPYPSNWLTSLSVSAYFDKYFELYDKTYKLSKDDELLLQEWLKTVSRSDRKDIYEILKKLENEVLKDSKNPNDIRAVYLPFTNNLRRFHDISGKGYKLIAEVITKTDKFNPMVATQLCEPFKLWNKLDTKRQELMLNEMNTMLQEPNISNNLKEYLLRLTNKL
# BJ [4] = test: cells; format: functional, cell-based; conditions: Homo sapiens
# BJ [5] = test: cytotoxicity toward BJ-TERT fibroblasts, dose response, cell-based, RAS-independent, luminescence (AID 1933); format: functional; conditions: Homo sapiens
# BJ [6] = test: cytotoxicity toward BJ-TERT-LT-ST fibroblasts, dose response, cell-based, RAS-independent, luminescence (AID 1935); format: functional; conditions: Homo sapiens;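 note: BJ fibroblasts immortalized with TERT plus LT and ST oncogenes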
# [7] = cytotoxicity toward DRD oncogenic fibroblasts, dose response, cell-based, non-viral oncogenic, luminescence (AID 1934); format: functional; conditions: Homo sapiens
# [8] = target: Glyceraldehyde-3-phosphate dehydrogenase (Homo sapiens, UniProt P04406)
# Sequence of Glyceraldehyde-3-phosphate dehydrogenase (P04406 whole entry): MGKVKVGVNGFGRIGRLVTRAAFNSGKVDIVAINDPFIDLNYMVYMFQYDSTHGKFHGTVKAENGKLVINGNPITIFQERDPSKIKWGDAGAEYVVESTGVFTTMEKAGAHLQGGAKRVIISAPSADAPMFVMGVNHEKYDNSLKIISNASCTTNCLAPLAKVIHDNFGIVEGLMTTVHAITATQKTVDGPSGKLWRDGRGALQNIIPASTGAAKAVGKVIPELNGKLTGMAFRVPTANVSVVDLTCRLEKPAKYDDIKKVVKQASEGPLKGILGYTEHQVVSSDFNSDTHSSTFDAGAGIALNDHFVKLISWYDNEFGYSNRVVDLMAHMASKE
# [9] = LGR2 antagonists, dose response, cell-based, HEK293, CRE-luciferase reporter, cherry pick, set 2 (AID 743343); format: functional;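 note: transfected cells were stimulated with diluted bursicon conditioned medium after compound addition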
# [10] = inhibitors of intracellular T. cruzi replication, confirmation, NIH3T3 host cells, beta-gal luminescence (AID 2044); format: functional, cell-based;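 note: intracellular parasites grown in NIH/3T3 mouse fibroblasts as host cells; luminescent beta-galactosidase reporter signal from transgenic T. cruzi replicating inside host cells; inhibitors lower the luminescence signal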
# [11] = MC4R antagonists, dose response, counter-screen for LGR2 antagonist project, cell-based, plate reader, cherry pick (AID 743444); format: functional;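 note: transfected HEK 293 cells stimulated with alpha-MSH peptide; potency of inhibitors of the alpha-MSH evoked signal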
# [12] = Luminescence Cell-Based Dose Confirmation HTS to Identify Activators of 5'UTR Stem-Loop Driven Alpha-Synuclein mRNA Translation in H4 Neuroglioblastoma Cells. [Related pubchem assays: 1829 (Project Summary), 1814 (Primary HTS)]; format: functional
# H4 = test: Luminescence Cell-Based Dose Response HTS to Identify Activators of 5'UTR Stem-Loop Driven Prion Protein mRNA Translation in H4 Neuroglioblastoma Cells. [Related pubchem assays: 1829 (Project Summary), 1814 (Primary HTS)]; format: functional; conditions: Homo sapiens
# [13] = HEK293 cell cytotoxicity, dose response, cytotoxicity control, plate reader, cherry-picked samples (AID 743446); format: functional, cell-based
# [14] = inhibitors of PGC1a acetylation in cells, dose response, cell-based, cherry-picked samples (AID 720514); format: functional;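 note: potency may reflect raised or lowered acetylation signal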
# Protein RecA = target: T3, Protein RecA (Mycobacterium tuberculosis, UniProt P9WHJ3); test: Fluorescence Cell-Free Homogeneous Dose Retest to Identify Inhibitors of RecA-Intein Splicing Activity. [Related pubchem assays (depositor defined):AID2097, AID2223, AID489010, AID492950]; format: functional
# T3 sequence (P9WHJ3 whole entry): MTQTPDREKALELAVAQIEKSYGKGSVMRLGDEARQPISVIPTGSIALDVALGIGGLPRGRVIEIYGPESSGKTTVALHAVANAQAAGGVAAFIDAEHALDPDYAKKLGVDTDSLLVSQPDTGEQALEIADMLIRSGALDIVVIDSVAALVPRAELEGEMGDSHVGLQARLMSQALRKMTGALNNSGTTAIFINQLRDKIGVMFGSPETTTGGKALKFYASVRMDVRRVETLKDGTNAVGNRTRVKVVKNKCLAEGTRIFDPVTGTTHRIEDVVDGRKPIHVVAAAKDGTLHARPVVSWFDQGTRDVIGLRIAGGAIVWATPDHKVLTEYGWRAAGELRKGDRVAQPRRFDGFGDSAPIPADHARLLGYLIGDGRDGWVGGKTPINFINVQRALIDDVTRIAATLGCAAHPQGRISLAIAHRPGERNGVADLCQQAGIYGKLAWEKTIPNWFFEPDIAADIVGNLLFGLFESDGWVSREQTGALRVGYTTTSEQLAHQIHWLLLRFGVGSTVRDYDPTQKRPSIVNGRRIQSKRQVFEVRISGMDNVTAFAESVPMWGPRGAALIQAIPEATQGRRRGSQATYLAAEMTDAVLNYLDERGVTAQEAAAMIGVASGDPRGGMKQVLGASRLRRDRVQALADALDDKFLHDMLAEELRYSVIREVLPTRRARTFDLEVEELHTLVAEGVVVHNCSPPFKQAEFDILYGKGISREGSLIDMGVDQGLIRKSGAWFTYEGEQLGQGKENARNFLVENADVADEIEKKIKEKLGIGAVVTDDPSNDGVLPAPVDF
# [15] = HepG2 cell cytotoxicity, dose response, cytotoxicity control, plate reader, cherry-pick, antagonist series (AID 743416); format: functional, cell-based
# [16] = A549 cell cytotoxicity, dose response, cytotoxicity control, plate reader, cherry-pick, antagonist series (AID 743412); format: functional, cell-based
# [17] = Luminescence Cell-Based Dose Response HTS to Identify Activators of Luciferase Translation or Activity in H4 […] Cells. [Related pubchem assays: 1829 (Project Summary), 1814 (Primary HTS)]; format: functional
# [18] = target: T4, Replicative DNA helicase DnaB (Mycobacterium tuberculosis, UniProt P9WMR3); test: DnaB intein splicing inhibitors, dose response, biochemical, cell-free fluorescence (AID 449749); format: functional
# T4 sequence (P9WMR3 whole entry): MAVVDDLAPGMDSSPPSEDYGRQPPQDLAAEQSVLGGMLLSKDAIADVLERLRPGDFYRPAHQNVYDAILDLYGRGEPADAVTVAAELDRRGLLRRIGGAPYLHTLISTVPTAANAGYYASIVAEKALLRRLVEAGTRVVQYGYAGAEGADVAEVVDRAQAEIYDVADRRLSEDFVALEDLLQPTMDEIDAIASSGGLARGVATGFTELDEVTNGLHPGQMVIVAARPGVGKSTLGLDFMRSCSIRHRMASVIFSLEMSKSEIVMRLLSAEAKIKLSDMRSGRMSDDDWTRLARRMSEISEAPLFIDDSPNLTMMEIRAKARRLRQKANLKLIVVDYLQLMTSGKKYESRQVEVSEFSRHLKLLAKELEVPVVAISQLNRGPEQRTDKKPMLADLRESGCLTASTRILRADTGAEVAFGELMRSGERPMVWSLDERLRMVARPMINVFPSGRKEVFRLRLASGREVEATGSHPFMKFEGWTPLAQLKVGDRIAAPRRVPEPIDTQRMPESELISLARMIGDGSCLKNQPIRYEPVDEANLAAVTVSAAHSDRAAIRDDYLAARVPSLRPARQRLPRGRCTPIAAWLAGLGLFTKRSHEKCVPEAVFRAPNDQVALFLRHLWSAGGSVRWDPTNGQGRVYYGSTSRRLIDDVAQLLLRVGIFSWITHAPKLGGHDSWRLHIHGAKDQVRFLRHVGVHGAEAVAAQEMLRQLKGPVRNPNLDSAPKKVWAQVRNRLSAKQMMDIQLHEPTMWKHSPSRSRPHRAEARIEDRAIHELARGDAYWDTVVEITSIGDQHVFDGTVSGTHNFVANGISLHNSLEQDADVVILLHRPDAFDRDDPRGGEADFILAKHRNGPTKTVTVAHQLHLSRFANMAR
# [19] = cytotoxicity toward NIH3T3 fibroblasts, dose response, counter-screen, cell-based, ATP luminescence, mouse fibroblasts (AID 2010); format: functional;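 note: cells exposed to compound for about 90 hours before reading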
# Leucine aminopeptidase = target: T5, Leucine aminopeptidase (Plasmodium falciparum 3D7, UniProt Q8IL11); test: P. falciparum M17LAP inhibitors, primary screen, biochemical, fluorogenic H-Leu-NHMec substrate, 1536-well (AID 1619); format: functional
# T5 sequence (Q8IL11 whole entry): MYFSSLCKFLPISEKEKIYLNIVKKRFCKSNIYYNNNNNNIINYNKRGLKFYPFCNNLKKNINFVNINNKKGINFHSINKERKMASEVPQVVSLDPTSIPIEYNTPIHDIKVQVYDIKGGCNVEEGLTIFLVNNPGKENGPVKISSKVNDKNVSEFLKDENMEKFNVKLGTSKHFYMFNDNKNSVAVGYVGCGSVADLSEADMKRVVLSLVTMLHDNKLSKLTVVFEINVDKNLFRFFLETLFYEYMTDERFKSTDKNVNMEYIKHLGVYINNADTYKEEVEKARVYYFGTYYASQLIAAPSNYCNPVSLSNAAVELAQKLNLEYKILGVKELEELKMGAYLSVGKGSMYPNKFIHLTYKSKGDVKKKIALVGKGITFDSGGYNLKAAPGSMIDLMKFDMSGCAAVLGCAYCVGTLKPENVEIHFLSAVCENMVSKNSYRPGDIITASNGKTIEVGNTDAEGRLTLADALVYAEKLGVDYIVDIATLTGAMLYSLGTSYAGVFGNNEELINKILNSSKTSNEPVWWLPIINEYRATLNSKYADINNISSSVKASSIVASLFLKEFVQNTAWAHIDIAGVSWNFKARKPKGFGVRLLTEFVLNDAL
smiles,measurement,setting,value
O=C(COC(=O)c1cc(Br)ccc1O)Nc1ccc2c(c1)OCO2,IC50,cells,22.1 µM (active)
CCOc1ccc(-c2nnc(SCC(=O)Nc3cc(C)on3)o2)cc1,IC50,[1],> 80 µM (inactive)
CS(=O)(=O)C1=NSC2=NC(=O)/C(=C\c3cccn3-c3ccc(Cl)cc3)C(=N)N21,IC50,[2],4.98 µM (active)
same,IC50,[3],5.93 µM (active)
same,IC50,Aminopeptidase N,5.15 µM (active)
CCOC(=O)c1c(C)[nH]c(C)c1C(=O)COC(=O)c1ccc([N+](=O)[O-])s1,IC50,cells,8.59 µM (active)
COc1cc(OC)cc(C(=O)NNC(=O)C2CCCC2)c1,EC50,BJ [4],> 150 µM (not active)
same,EC50,BJ [5],> 150 µM (not active)
same,EC50,BJ [6],> 150 µM (not active)
same,EC50,[7],> 150 µM (not active)
O=C1C(Cl)=C(N2CCN(CCO)CC2)C(=O)N1c1ccnc(Cl)c1,IC50,[8],> 50 µM (inconclusive)
O=C(CCC1CCCCC1)Nc1nc[nH]n1,IC50,[8],> 10 µM (inconclusive)
O=c1c(Cl)c(Cl)cnn1Cc1nnc(-c2ccc(Cl)cc2)o1,AC50,[9],25.3 µM (active)
same,EC50,[10],1.15 µM (active)
same,AC50,[11],30.9 µM (active)
same,EC50,[12],> 120 µM (not active)
same,EC50,H4,> 120 µM (not active)
same,AC50,[13],8.16 µM (active)
same,AC50,[14],7.83 µM (active)
same,EC50,Protein RecA,2.95 µM (active)
same,AC50,[15],8.01 µM (active)
same,AC50,[16],7.33 µM (active)
same,EC50,[17],> 120 µM (not active)
same,AC50,[18],9.97 µM (active)
same,EC50,[19],2.02 µM (active)
Cc1cc(NC(=O)COc2ccccc2)ccc1Cl,IC50,cells,> 50 µM (active)
Cc1c(CCC(=O)N2CCC(C(=O)O)CC2)c(=O)oc2cc3oc4c(c3cc12)CCCC4,IC50,[1],> 80 µM (inactive)
CCOc1ccccc1Nc1nnc(SCC(=O)NC(Cc2c[nH]c3ccccc23)C(=O)O)s1 (configuration not stated),IC50,Leucine aminopeptidase,7.81 µM (active)
same,IC50,Aminopeptidase N,67.4 µM (active)
CCN(CC)S(=O)(=O)c1ccc(N2CCOCC2)c(NC(=O)c2[nH]c(C)c(C(C)=O)c2C)c1,IC50,[1],> 80 µM (inactive)
Cn1cc(C(=O)N/N=C/c2ccc3c(c2)OCO3)c2ccccc21,EC50,BJ [4],44.9 µM (active)
same,EC50,[12],> 120 µM (not active)
same,EC50,H4,5.85 µM (active)
same,EC50,BJ [5],124 µM (active)
same,EC50,[17],5.78 µM (active)
same,EC50,BJ [6],> 150 µM (inconclusive)
same,EC50,[7],19.6 µM (active)
